Like-named read-outs stand apart in the source and are kept apart here.
Key:
human recombinant COX-2 = molecular target: T1, human recombinant COX-2 (Homo sapiens, UniProt P35354); assay: COX-2 assay (PGE2 formation, ELISA); format: biochemical; settings: for IC50: read-out: IC50 COX-2 (dash)
T1 construct: purchased Sigma-Aldrich (Czech Republic)
T1 sequence (P35354 18-604): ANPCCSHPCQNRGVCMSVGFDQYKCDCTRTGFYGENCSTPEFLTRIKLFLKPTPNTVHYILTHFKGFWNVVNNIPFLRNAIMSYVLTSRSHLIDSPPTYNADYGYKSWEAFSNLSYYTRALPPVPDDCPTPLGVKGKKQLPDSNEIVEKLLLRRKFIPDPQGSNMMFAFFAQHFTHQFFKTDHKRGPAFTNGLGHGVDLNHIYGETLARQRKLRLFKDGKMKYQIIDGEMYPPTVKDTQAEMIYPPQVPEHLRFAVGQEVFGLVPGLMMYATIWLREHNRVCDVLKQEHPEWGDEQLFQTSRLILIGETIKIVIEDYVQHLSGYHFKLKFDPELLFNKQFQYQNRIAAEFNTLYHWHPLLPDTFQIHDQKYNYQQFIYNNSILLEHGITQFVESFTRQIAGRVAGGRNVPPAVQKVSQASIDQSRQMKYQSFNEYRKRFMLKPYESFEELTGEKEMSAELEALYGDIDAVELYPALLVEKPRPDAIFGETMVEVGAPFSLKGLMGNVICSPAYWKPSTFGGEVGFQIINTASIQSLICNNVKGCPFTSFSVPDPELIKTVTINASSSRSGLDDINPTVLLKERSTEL

[1] = molecular target: T2, COX-1 from ram seminal vesicles (Ovis aries, UniProt P05979); assay: COX-1 assay (PGE2 formation, ELISA); format: biochemical
T2 construct: COX-1 from ram seminal vesicles; purchased Sigma-Aldrich (Czech Republic); host or cells: ram seminal vesicles (tissue-derived enzyme)
T2 sequence (P05979 25-600): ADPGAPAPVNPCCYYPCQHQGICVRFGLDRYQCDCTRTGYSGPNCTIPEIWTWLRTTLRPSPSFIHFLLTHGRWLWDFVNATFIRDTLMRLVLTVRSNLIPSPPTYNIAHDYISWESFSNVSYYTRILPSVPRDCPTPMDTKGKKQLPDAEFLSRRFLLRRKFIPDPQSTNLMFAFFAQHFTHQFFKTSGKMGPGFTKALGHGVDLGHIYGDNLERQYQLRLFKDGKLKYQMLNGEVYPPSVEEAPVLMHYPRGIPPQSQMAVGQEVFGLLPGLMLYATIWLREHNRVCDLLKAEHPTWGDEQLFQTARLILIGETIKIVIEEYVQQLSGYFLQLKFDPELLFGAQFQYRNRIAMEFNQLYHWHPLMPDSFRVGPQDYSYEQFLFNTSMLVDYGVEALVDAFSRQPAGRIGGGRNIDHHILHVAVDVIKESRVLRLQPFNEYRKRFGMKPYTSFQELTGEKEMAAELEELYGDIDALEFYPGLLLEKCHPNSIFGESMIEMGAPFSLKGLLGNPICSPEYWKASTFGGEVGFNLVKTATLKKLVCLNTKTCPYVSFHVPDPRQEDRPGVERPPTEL

5-LOX = molecular target: T3, 5-LOX (Homo sapiens, UniProt P09917); assay: 5-LOX assay (LTB4 formation in cells from buffy coat, ELISA); format: cell-based
T3 construct: endogenous in cells; host or cells: leukocytes isolated from buffy coat of healthy donors
T3 sequence (P09917 1-674): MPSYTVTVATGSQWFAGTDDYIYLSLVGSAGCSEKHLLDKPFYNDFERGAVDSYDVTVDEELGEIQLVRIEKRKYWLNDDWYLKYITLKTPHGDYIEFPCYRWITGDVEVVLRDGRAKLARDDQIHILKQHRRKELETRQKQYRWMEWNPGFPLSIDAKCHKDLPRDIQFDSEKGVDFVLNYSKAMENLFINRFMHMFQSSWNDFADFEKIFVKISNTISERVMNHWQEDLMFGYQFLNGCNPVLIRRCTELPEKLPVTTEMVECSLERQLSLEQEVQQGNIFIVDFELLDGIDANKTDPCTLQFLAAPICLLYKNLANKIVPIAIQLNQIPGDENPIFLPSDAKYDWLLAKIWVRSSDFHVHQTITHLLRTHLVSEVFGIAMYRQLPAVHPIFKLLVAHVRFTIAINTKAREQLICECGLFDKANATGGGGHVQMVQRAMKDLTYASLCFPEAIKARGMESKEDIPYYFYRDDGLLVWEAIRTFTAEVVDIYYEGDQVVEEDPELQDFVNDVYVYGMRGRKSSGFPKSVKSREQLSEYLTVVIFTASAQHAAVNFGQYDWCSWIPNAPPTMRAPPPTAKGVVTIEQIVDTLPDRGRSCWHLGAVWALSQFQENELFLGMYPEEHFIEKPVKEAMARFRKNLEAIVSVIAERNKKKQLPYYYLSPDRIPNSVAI

COX-2 = settings: cited from earlier work
COX-1 = settings: cited from earlier work
[2] = mean ± SD, read-out: IC50 ± SD COX-1
[3] = dash = IC50 > 50 μM, read-out: IC50 COX-1 (dash)
[4] = mean ± SD, read-out: IC50 ± SD 5-LOX

In the case of `Oc1cc(O)c2c(c1)O[C@H](c1ccc(O)c(O)c1)[C@@H](O)C2` [(+)-catechin], the “COX-2 inhibitory activity” value (human recombinant COX-2; 50 μM concentration) is reported as “inactive” and the “COX-1 inhibitory activity” value ([1]; 50 μM concentration) is reported as “inactive”.

For `O=c1c(O)c(-c2ccc(O)cc2)oc2cc(O)cc(O)c12` [Kaempferol, kaempferol], the IC50 (human recombinant COX-2) was greater than 50 µM, the IC50 [1, 2] was 43.8 ± 18.8 µM and the IC50 (5-LOX; read-out: IC50 5-LOX (dash)) was greater than 50 µM.

Work on `O=c1cc(-c2ccc(O)c(O)c2)oc2cc(O)cc(O)c12` [Luteolin, luteolin] yielded an IC50 (human recombinant COX-2) greater than 50 µM, an IC50 [1, 3] greater than 50 µM and an IC50 (5-LOX; [4]) of 2.25 ± 1.75 µM.

`O=c1c(O)c(-c2cc(O)c(O)c(O)c2)oc2cc(O)cc(O)c12` [Myricetin, myricetin] gave an IC50 (human recombinant COX-2) greater than 50 µM, an IC50 [1, 3] greater than 50 µM and an IC50 (5-LOX) of 4.02 ± 2.37 µM.

For `Oc1cc(O)cc(/C=C/c2ccc(O)c(O)c2)c1` [Piceatannol, piceatannol], the IC50 (human recombinant COX-2) is listed as greater than 50 µM, the IC50 (COX-2; ref 5 (Murias et al.)) is listed as 0.0113 µM and the “inhibition of COX-2” value (COX-2; ref 38 (Lee et al.)) is listed as “no inhibition”. The IC50 [1] was greater than 50 µM, the IC50 (5-LOX; [4]) was 0.76 ± 0.35 µM and the IC50 (COX-1; ref 5 (Murias et al.)) was 4.71 µM. For the same molecule, the “inhibition of COX-1” value (COX-1; ref 38 (Lee et al.)) was “no inhibition” and the IC50 (COX-1; ref 39 (Gerhäuser et al.)) was 81.4 µM.

`O=c1c(O)c(-c2ccc(O)c(O)c2)oc2cc(O)cc(O)c12` [Quercetin, quercetin] gave an IC50 (human recombinant COX-2) greater than 50 µM, an IC50 [1, 2] of 43.8 µM and an IC50 ([1]; read-out: IC50 COX-1 (dash)) greater than 50 µM.

`Oc1ccc(/C=C/c2cc(O)cc(O)c2)cc1` [Resveratrol, trans-resveratrol] showed an IC50 [1, 2] of 2.27 ± 1.17 µM and an IC50 (5-LOX; read-out: IC50 5-LOX (dash)) greater than 50 µM.
